# Results taken from patent publication US20100028416A1, “DRUG CARRIERS” (Nitto Denko Corporation, priority 2008, published 2010).
# System: HSC-T6 cells
# Conditions: 96-well plate, excitation 560 nm, emission 590 nm, FIGS. 8-9, comparison with non-retinoid composition
# Description: HSC-T6 cells, which express a vitamin A binding protein receptor, were seeded one day prior to experiment in a 96-well plate (100 μL culture medium per well). […] The solutions were diluted with culture medium and incubated for 15 minutes at room temperature. 15 μL was added to the cells. After incubating the cells in solution, the culture medium was removed. Cells were washed once with DPBS and fresh culture medium was added (100 μL culture medium per well). Absorbance (excitation and emission wavelengths were 560 nm and 590 nm, respectively) was read by a BioTek FLx800 96-well plate fluorescence reader and recorded.
substance,measurement,value
Texas Red-Dextran-Retinoid,cell uptake (absorbance; greater absorbance indicates greater cell uptake),greater cellular uptake than the oleic acid composition
